# Laboratory results: ChEMBL document CHEMBL2074127, “P-glycoprotein in the blood-brain barrier of mice influences the brain penetration and pharmacological activity of many drugs” (J Clin Invest, 1996)
# What was measured:
# [1] = biological target: T1, ATP-dependent translocase ABCB1 (Mus musculus, UniProt P21447); test: TP_TRANSPORTER: transepithelial transport (basal to apical) in mdr1a-expressing LLC-PK1 cell; format: functional, cell-based; conditions: pig
# [2] = biological target: T1, ATP-dependent translocase ABCB1; test: TP_TRANSPORTER: increase in brain concentration in mdr1a(-/-) mouse; format: functional, organism-based; conditions: in vivo
# [3] = biological target: ATP-dependent translocase ABCB1 (Homo sapiens, UniProt P08183); test: TP_TRANSPORTER: transepithelial transport (basal to apical) in MDR1-expressing LLC-PK1 cells; format: functional, cell-based; conditions: pig
# Sequence of ATP-dependent translocase ABCB1 (Homo sapiens, UniProt P08183) (P08183 whole entry): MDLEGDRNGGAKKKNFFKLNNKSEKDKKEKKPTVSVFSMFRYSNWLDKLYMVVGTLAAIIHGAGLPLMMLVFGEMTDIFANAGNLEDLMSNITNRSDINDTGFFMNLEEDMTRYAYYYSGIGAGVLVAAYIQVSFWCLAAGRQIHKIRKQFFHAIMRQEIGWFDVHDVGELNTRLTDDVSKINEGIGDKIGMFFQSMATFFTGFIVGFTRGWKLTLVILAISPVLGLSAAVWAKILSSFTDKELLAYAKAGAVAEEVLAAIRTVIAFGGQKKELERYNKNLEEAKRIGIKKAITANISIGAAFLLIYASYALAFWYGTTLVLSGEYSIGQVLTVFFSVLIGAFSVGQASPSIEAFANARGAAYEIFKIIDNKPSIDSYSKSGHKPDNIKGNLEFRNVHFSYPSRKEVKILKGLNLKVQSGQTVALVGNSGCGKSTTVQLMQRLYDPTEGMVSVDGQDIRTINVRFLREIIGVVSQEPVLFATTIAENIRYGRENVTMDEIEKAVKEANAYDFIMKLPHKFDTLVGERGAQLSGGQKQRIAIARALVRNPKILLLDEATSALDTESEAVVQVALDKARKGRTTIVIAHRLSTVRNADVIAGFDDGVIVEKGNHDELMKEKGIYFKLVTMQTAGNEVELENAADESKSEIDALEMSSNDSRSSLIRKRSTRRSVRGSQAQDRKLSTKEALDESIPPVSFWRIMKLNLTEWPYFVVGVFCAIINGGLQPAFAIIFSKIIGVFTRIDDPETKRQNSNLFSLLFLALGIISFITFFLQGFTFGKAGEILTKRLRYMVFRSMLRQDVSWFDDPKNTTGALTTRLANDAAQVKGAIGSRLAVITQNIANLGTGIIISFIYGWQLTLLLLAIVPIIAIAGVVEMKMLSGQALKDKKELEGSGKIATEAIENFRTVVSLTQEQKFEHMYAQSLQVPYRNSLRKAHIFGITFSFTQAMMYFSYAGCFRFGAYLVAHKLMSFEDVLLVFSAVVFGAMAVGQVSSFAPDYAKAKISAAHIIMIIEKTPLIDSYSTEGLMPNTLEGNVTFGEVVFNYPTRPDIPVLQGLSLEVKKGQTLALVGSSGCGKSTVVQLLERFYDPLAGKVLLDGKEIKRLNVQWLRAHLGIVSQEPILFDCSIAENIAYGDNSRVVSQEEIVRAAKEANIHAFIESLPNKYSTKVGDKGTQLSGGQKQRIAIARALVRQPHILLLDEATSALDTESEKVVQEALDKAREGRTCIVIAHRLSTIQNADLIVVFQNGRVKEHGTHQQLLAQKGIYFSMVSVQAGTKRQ
# T1 sequence (P21447 whole entry): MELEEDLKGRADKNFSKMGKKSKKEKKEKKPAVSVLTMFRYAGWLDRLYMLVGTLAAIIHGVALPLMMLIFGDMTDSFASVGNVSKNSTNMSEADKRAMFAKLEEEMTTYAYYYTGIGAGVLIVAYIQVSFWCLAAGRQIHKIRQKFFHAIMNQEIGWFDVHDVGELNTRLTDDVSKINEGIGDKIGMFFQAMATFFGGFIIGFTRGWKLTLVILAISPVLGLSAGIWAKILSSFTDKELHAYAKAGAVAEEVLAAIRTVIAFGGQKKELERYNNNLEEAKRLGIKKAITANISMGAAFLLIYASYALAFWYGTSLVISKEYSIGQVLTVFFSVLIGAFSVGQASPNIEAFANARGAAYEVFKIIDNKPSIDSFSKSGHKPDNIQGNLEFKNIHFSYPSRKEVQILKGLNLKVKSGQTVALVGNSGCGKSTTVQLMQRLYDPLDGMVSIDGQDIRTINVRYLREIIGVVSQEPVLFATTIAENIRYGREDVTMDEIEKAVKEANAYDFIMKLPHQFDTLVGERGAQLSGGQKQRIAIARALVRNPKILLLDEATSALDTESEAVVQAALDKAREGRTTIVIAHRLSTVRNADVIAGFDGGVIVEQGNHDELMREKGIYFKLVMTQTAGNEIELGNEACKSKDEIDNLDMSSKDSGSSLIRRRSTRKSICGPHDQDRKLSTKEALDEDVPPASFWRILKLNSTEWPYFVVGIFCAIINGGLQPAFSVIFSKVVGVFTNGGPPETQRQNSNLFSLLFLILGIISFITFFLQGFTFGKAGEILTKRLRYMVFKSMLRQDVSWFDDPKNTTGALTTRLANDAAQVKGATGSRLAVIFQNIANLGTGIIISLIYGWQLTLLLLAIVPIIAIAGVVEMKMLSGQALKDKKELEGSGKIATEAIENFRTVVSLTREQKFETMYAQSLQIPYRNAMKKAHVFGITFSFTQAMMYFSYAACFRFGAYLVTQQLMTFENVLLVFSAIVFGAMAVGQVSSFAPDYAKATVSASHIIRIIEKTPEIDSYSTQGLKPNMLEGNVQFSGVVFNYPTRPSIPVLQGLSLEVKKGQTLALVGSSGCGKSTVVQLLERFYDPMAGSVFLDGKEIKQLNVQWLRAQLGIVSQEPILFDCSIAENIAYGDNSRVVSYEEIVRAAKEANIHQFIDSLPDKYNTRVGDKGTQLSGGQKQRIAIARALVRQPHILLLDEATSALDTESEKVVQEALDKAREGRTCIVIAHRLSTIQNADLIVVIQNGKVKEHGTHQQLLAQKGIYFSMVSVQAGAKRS
SMILES,Activity [1],Activity [2],Activity [3]
Cc1nccn1CC1CCc2c(c3ccccc3n2C)C1=O (stereo unspecified) [ONDANSETRON],substrate [+],substrate [+],
O=C1NC(=O)C(c2ccccc2)(c2ccccc2)N1 [PHENYTOIN],substrate [+],,
CN(C)C(=O)C(CCN1CCC(O)(c2ccc(Cl)cc2)CC1)(c1ccccc1)c1ccccc1 [LOPERAMIDE],substrate [+],substrate [+],substrate [+]
